Data on 13 compounds can be found in ChEMBL document CHEMBL1129097, “1-benzyl-3-thioaryl-2-carboxyindoles as potent non-peptide endothelin antagonists” (Bioorg Med Chem Lett, 1996).

Experiment [1] concerns the target T1, Endothelin receptor type B (Homo sapiens, UniProt P24530).
T1 sequence (P24530 whole entry): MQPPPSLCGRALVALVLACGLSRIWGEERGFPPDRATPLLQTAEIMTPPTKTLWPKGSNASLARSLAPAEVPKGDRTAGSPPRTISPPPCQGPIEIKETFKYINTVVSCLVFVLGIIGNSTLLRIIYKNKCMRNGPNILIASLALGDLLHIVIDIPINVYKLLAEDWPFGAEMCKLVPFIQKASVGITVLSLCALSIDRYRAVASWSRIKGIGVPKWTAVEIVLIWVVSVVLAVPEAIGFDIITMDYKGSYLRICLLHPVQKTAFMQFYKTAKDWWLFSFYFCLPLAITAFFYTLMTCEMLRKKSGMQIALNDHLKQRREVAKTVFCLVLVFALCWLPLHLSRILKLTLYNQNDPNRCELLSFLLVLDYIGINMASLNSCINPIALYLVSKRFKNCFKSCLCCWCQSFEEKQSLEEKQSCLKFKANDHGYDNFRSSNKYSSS
Briefly: Affinity for human endothelin B receptor expressed in CHO-K1 cells. It is filed as cell-based.

For a further experiment, the target named is T2, Endothelin-1 receptor (Homo sapiens, UniProt P25101).
T2 sequence (P25101 whole entry): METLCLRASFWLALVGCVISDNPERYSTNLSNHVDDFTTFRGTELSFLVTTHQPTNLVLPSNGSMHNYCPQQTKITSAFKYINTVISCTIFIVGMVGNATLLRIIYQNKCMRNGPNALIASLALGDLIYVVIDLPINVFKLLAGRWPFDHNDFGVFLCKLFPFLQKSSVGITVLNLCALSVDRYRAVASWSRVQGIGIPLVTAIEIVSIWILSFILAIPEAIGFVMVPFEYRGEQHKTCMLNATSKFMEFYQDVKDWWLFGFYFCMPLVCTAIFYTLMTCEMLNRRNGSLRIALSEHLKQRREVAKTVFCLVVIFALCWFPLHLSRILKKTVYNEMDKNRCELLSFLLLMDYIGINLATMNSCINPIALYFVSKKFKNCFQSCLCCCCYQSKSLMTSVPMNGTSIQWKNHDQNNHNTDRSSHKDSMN
Nature of the experiment: Affinity for human endothelin A receptor expressed in Ltk cells. It counts as cell-based.

Experiment [2] concerns the target T1, Endothelin receptor type B. Briefly: Inhibition of sarafotoxin-6c stimulated vasoconstriction in rabbit pulmonary artery. It is filed as functional, Oryctolagus cuniculus. The following applies: target entry is the homologue from another species; read-out: pA2 (converted).
Experiment [3] concerns the target T3, Endothelin receptor, ET-A/ET-B (Homo sapiens, UniProt P24530+P25101).
T3 sequence (P24530 whole entry): T1 sequence (P24530 whole entry)
T3 sequence (P25101 whole entry): T2 sequence (P25101 whole entry)
Briefly: In vitro inhibition of ET-1 stimulated vasoconstriction in rabbit femoral artery. It counts as functional, tissue-based, Oryctolagus cuniculus. The settings on record: target entry is the homologue from another species.

By IC50 is commonly meant the midpoint of a concentration-inhibition curve. A higher IC50 goes with a need for much substance. By pA2 is commonly meant a measure of antagonist potency on a negative log scale.

As to `CC(C)Oc1c(C(=O)O)sc2ccc(OCc3ccccc3)cc12`, the IC50 in experiment [1] was more than 100000 nM; against Endothelin-1 receptor it was 8800 nM. Compound `COc1cccc(Sc2c(C(=O)O)n(Cc3ccc4c(c3)OCO4)c3cc4c(cc23)OCO4)c1` gave an IC50 in experiment [1] of 760 nM. Same read-out and setting: next, `COc1cccc(Sc2c(C(=O)O)sc3ccccc23)c1`: more than 25000 nM. As for `COc1cccc(Sc2c(C(=O)O)n(Cc3ccccc3)c3cc(OC)c(OC)cc23)c1`, the IC50 is 870 nM in experiment [1] and 160 nM against Endothelin-1 receptor. As to `COc1cccc(Sc2c(C(=O)O)n(Cc3cc(OC)c4c(c3)OCO4)c3cc4c(cc23)OCO4)c1`, 29000 nM corresponded to half-maximal inhibition in experiment [1] (IC50).

As to `O=C(O)c1c(Sc2ccc3c(c2)OCO3)c2cc3c(cc2n1Cc1ccc2c(c1)OCO2)OCO3`, the results for the IC50 (in experiment [1]; against Endothelin-1 receptor) were 420 nM and 100 nM, respectively.

As to `COc1cccc(Sc2c(C(=O)O)n(Cc3ccc4c(c3)OCO4)c3ccccc23)c1`, it took 86 nM to reach half-maximal inhibition on Endothelin-1 receptor (IC50). Take `COc1cccc(Sc2c(C(=O)O)n(Cc3ccc4c(c3)OCO4)c3cc(OCc4ccccc4)c(OC)cc23)c1`: the IC50 in experiment [1] was 1600 nM; against Endothelin-1 receptor, 20000 nM.

Turning to `COc1ccc(Sc2c(C(=O)O)n(Cc3ccc4c(c3)OCO4)c3cc4c(cc23)OCO4)cc1OC`, the Kb in experiment [2] was 631 nM. Moreover, the IC50 against Endothelin-1 receptor turned out to be 41 nM. The pA2 in experiment [3] is on record as 6.3. Compound `COc1cccc(Sc2c(C(=O)O)n(Cc3ccccc3)c3ccccc23)c1` showed an IC50 in experiment [1] of 15000 nM. With `COc1cc2c(Sc3ccc4c(c3)OCO4)c(C(=O)O)n(Cc3ccc4c(c3)OCO4)c2cc1OCc1ccccc1`, the IC50 in experiment [1] was 490 nM; on Endothelin-1 receptor, 620 nM. In experiment [1], `COc1cccc(Sc2c(C(=O)O)oc3ccccc23)c1` registered an IC50 of more than 25000 nM. For `COc1cc2c(Sc3cc(OC)c(OC)c(OC)c3)c(C(=O)O)n(Cc3ccc4c(c3)OCO4)c2cc1OCc1ccccc1`, the IC50 (in experiment [1]; against Endothelin-1 receptor) was more than 2500 nM each time.
